Source: patent US10648917B2, “Luminescent compositions and applications thereof” (THE PENN STATE RESEARCH FOUNDATION, priority 2015, dated 2020)

Assay: Fluorescence spectra, absorbance and quantum yield (spectrofluorometer, integration sphere)
Assay type: physicochemical
Settings: CFD dyes
Procedure: Fluorescence spectra were recorded by a Horiba FluoroMax-4 spectrofluorometer. All polymer and small molecule samples were measured at a concentration of 2% w/w in 1,4-dioxane or DI water and a slit size of 1 nm by 1 nm unless otherwise specified. Quantum yields were also determined on the same spectrofluorometer by using a Quantum-φ integration sphere at the same concentration and slit size with the blank solvent as the reference. ^1H-NMR, ^13C-NMR were performed on a JNM ECS 300 spectrometer using DMSO-d6 or D2O as solvents. Attenuated total reflection Fourier transform infrared (ATR-FTIR) spectra were collected with a Bruker V70 spectrometer using BPLP films. A Shimadzu HPLC-MS system with a Phenomenex Kinetex 2.6u XB-C18 100 mm×2.9 mm column, a SPD M20A PDA detector and a RF-20AXS fluorescence detector (Ex. 360 nm and Em. 430 nm) was used to characterize the structures of fluorophores as well. The mobile phase was a gradient of DI water and acetonitrile with 0-6 min 2% acetonitrile, 6-12 min 2%-30% acetonitrile, and 12-15 min 2% acetonitrile. The flow rate was 0.15 ml/min. Electrospray ionization mass spectroscopy (ESI-MS) was performed with a positive voltage of 4.5 kV and negative mode voltage −4.0 kV and a CDL temperature of 200° C. The analysis of the degradation products of BPLPs were conducted by immersing BPLPs in 1M K2CO3 solution at 37° C. for 24 hours. After degradation, the solutions were neutralized by 1N HCl solution to pH 7 and characterized by HPLC-MS as described above.
Fluorescence spectra were recorded by a Horiba FluoroMax-4 spectrofluorometer. All samples were measured at a concentration corresponding to an optical density of 0.1 in water and a slit size of 1 nm by 1 nm unless specified. Quantum yields were also determined on same spectrofluorometer by using a Quantum-φ integration sphere at samples' maximum excitation wavelength and at an increment of 0.3 nm. Photostability studies were done by continuously exciting samples at their maximum excitation wavelength and monitoring at the maximum emission wavelength.
Fluorescence spectra were recorded on a Horiba FluoroMax-4 spectrofluorometer (Horiba Scientific, Edison N.J.). All polymer and samples were characterized at a concentration of 2 wt % in 1,4-dioxane and a slit size of 1 nm by 1 nm unless otherwise specified. The fluorescence properties of small molecule dyes were also measure in 2 wt % DI water solutions at same conditions as polymer solutions. BPLPs were also degraded in 1M K2CO3 solution at 37° C. for 24 hours and then neutralized with 1N HCl solution to pH7. The resulting degradation solutions were subject to further PL characterizations. Quantum yields were also determined on the same spectrofluorometer by using a Quantum-φ integration sphere (Horiba Scientific, Edison N.J.) at the same concentration and slit size with the blank solvent as the reference. Photostability of small molecules and polymers were determined by monitoring the emission intensity decay at their max. Excitation and emission wavelengths over 3 hours of continuous lumination in the spectrofluorometer.
Absorbance Spectra were recorded on Tecan Infinite M200 Pro UV-vis spectroscopy, and fluorescence spectra were recorded on Horiba FluoroMax-4 fluorospectroscopy at concentrations below 0.1 O.D. unless otherwise indicated. Quantum Yields were measured on the Quantum φ Integrating Sphere accessory to the FluoroMax-4, while lifetime measurements were determined through the Time-Correlation Single Photon Counting (TCSPC) accessory to the FluroMax-4. TCSPC was utilized in conjunction with NanoLED pulsed diode light source with peak excitation wavelength at 352 nm and at 10,000 counts peak preset. Emission was collected at the fluorescence λmax, unless otherwise indicated. For all pH-dependence experiments, sample pH was adjusted with sulfuric acid or sodium hydroxide. For all chloride-dependent quenching experiments, magnesium chloride hexahydrate (Sigma Aldrich) was used.

Shifting (emission shifting with excitation wavelength) | SMILES
Yes | NCCN1C(=O)C=C(C(=O)O)CC1=O [CA-EDA]
Yes | O=C(O)CN1C(=O)C=C(C(=O)O)CC1=O [CA-Gly]

Same assay, conditions: Table III

Φ (quantum yield) [%] | λem (maximum emission wavelength) [nm] | λex (maximum excitation wavelength) [nm] | ϵ (extinction coefficiency) [M⁻¹ cm⁻¹] | SMILES
98.5 | 439 | 396 | 877.8 | O=C(O)c1cc(=O)n2c(c1)sc1ccccc12 [CA-2-Aminothiolphenol]
8.8 | 430 | 356 | 6.3 | CC(CC(=O)O)N1C(=O)C=C(C(=O)O)CC1=O (stereo not shown) [CA-3-Aminobutanoic Acid]
14.1 | 437 | 396 | 19.6 | O=C(O)C1=CC(=O)N(c2ccc(S)cc2)C(=O)C1 [CA-4-Aminothiolphenol]
23.8 | 440 | 378 | 35.5 | NC(=O)CC(C(=O)O)N1C(=O)C=C(C(=O)O)CC1=O (stereo not shown) [CA-Asparagine]
19.7 | 427 | 356 | 6.8 | O=C(O)CC(C(=O)O)N1C(=O)C=C(C(=O)O)CC1=O (stereo not shown) [CA-Aspartic Acid]
15 | 430 | 367 | 11.6 | NC(CSSCC(C(=O)O)N1C(=O)C=C(C(=O)O)CC1=O)C(=O)O (stereo not shown) [CA-Cystine]
9.2 | 440 | 377 | 828.3 | NCCN1C(=O)C=C(C(=O)O)CC1=O [CA-EDA]
9.1 | 423 | 358 | 5.1 | O=C(O)CCC(C(=O)O)N1C(=O)C=C(C(=O)O)CC1=O (stereo not shown) [CA-Glutamic Acid]
7.3 | 448 | 383 | 102.4 | NC(=O)CCC(C(=O)O)N1C(=O)C=C(C(=O)O)CC1=O (stereo not shown) [CA-Glutamine]
39.0 | 434 | 357 | 12 | O=C(O)CN1C(=O)C=C(C(=O)O)CC1=O [CA-Gly]
11.5 | 426 | 357 | 9.4 | NCCCCCCN1C(=O)C=C(C(=O)O)CC1=O [CA-Hexamethylenediamine]
70.8 | 445 | 375 | 109.2 | O=C(O)c1cc2n(c(=O)c1)C(C(=O)O)CCS2 (stereo not shown) [CA-Homocysteine]
17.2 | 430 | 357 | 5.6 | CCC(C)C(C(=O)O)N1C(=O)C=C(C(=O)O)CC1=O (stereo not shown) [CA-Isoleucine]
8.8 | 423 | 359 | 6.2 | CC(C)CC(C(=O)O)N1C(=O)C=C(C(=O)O)CC1=O (stereo not shown) [CA-Leucine]
8.6 | 431 | 359 | 11.4 | NCCCCC(C(=O)O)N1C(=O)C=C(C(=O)O)CC1=O (stereo not shown) [CA-Lysine]
10.5 | 424 | 362 | 5.3 | CSCCC(C(=O)O)N1C(=O)C=C(C(=O)O)CC1=O (stereo not shown) [CA-Methionine]
80.6 | 432 | 369 | 3180 | CC1(C)Sc2cc(C(=O)O)cc(=O)n2C1C(=O)O (stereo not shown) [CA-Penicillamine]
12.7 | 423 | 358 | 7.8 | O=C(O)C1=CC(=O)N(C(Cc2ccccc2)C(=O)O)C(=O)C1 (stereo not shown) [CA-Phenylalanine]
4.2 | 440 | 369 | 437.9 | O=C(O)C1=CC(=O)N(C(CO)C(=O)O)C(=O)C1 (stereo not shown) [CA-Serine]
78.6 | 436 | 386 | 418 | CC1Oc2cc(C(=O)O)cc(=O)n2C1C(=O)O (stereo not shown) [CA-Threonine]
5 | 445 | 386 | 14.6 | O=C(O)C1=CC(=O)N(C(CC2=c3ccccc3=NC2)C(=O)O)C(=O)C1 (stereo not shown) [CA-Tryptophan]
17.5 | 428 | 361 | 5.3 | CC(C)C(C(=O)O)N1C(=O)C=C(C(=O)O)CC1=O (stereo not shown) [CA-Valine]
42.1 | 419 | 368 | 34.6 | O=C(O)C1=CC(=O)N(CCO)C(=O)C1 [CA-ethanolamine]
22.1 | 422 | 355 | 4.9 | O=C(O)CCCN1C(=O)C=C(C(=O)O)CC1=O [CA-γ-Aminobutyric acid]
0.2 | 423 | 355 | 6.1 | CC(C(=O)O)N1C(=O)CC(C(=O)O)CC1=O (stereo not shown) [TCA-Alanine]
54.2 | 431 | 366 | 11.6 | O=C(O)C1CC(=O)N(C(CS)C(=O)O)C(=O)C1 (stereo not shown) [TCA-Cysteine]

SMILES | Φ (quantum yield) [%] | λem (maximum emission wavelength) [nm] | λex (maximum excitation wavelength) [nm] | ϵ (extinction coefficiency) [M⁻¹ cm⁻¹]
N=C(N)NCCCC(C(=O)O)N1C(=O)C=C(C(=O)O)CC1=O (stereo not shown) [CA-Arginine] | 15.5 | 451 | 382 | 11.6
CCCCCCCN1C(=O)C=C(C(=O)O)CC1=O [CA-Heptylamine] | 13.5 | 424 | 356 | 4.7
Nc1ccc(N2C(=O)C=C(C(=O)O)CC2=O)cc1 [CA-Phenylenediamine] | 4.5 | 433 | 360 | 12.1

Same assay, conditions: representative CFDs, Table I

Max. Em. Wavelength [nm] | Max. Ex. Wavelength [nm] | Quantum Yield [%] | SMILES
440 | 377 | 9.2 | NCCN1C(=O)C=C(C(=O)O)CC1=O [CA-EDA]
434 | 357 | 39.0 | O=C(O)CN1C(=O)C=C(C(=O)O)CC1=O [CA-Gly]
